Here are results for 2 substances from patent publication US6833372B2, “Non-peptide GnRH agents, Pharmaceutical compositions, and methods for their use” (Pfizer, Inc., priority 2002, dated 2004).

In this test the target is T1, GGH3 cells (GH3 cells stably transfected with the rat GnRH receptor) (Rattus norvegicus, UniProt P30969).
T1 construct: host or cells: GH3 cells stably transfected (GGH3), whole cells
T1 sequence (P30969 1-327): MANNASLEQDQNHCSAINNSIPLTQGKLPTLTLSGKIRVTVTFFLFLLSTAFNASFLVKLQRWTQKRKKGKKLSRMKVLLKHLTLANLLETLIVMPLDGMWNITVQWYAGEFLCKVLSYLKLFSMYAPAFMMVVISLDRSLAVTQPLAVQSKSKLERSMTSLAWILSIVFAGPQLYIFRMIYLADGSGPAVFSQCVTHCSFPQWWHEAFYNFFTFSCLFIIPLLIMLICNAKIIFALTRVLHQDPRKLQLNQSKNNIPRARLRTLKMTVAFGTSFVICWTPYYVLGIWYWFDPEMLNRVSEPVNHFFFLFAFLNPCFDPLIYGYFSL
The experiment in a line: Effect of compounds on 125I-GnRH-A binding to GGH3 cells (competition radioligand binding, whole cells). The note with it: on ice 2 hr.

Procedure: Cell Culture. GGH3 cells (Dr. William Chin, Harvard Medical School, Boston, Mass.) are grown in low glucose Dulbecco's modified Eagle's medium (DMEM) containing 100 U/mL penicillin/streptomycin, 0.6 g/L G418 and 10% heat-inactivated FBS.
The reaction mixture is vortexed and incubated for 1 min at room temperature. Two; ml of 0.5 M acetic acid is added to the reaction tube and the mixture is added to a C18 Sep-Pak cartridge: The cartridge is washed with subsequent washes of 5 ml H2O and 5 ml 0.5M acetic acid and then eluted with 5×1 ml of 60% CH3CN/40% 0.5M acetic acid. The eluate is diluted with 3× volume of HPLC buffer A (0.1% TFA in H2O) and loaded onto a C18 column. The iodinated product is eluted over 20-25 min with a gradient of 25-100% CH3CN containing 0.1% TFA. The radioactive fractions (750 μl/fraction) are collected into clean polypropylene tubes containing 100 μl of 10% BSA. Fractions are assessed for biological activity by radioligand binding.
Reactions are performed on ice for 2 hr and stopped by the addition of 2 ml of ice-cold PBS wash buffer (50 mM NaPO4, 0.9% NaCl, 2 mM MgCl2, and 0.02% NaN3, pH 7.4) and rapid filtration onto GF/C filters presoaked with 0.05% polyethylenimine utilizing a Brandel cell harvester. Filters are counted on a gamma counter. […]

For the substance “Ac-D-2-Nal-p-chloro-D-Phe-β-(3-pyridyl)-D-Ala-Ser-Lys(nicotinoyl)-D-Lys(nicotinoyl)-Leu-Lys(isopropyl)-Pro-D-Ala-NH2 [Antide]”, the “ability to inhibit 125I-GnRH-A binding to GGH3 cells” value is given as “blocked”.

As for “pGlu-His-Trp-Ser-Tyr-Gly-Leu-Arg-Pro-Gly-NH2 [GnRH]”, the “ability to inhibit 125I-GnRH-A binding to GGH3 cells” value was “blocked”.
